What was measured:
[1] = biological target: T1, Ros1 enzyme (Homo sapiens, UniProt P08922); experiment: Ros1 enzymatic assay; assay type: biochemical; conditions: -log IC50 (M); 20 μM ATP, 120 min at room temperature; read-out: ROS1 pIC50 (converted)
T1 construct: 0.5 μg/ml Ros1 enzyme
Description: Compounds were spotted onto white 384-well Proxiplate plus plates (Perkin Elmer) to which 5 μl of enzyme mix (0.5 μg/ml Ros1 enzyme, 50 mM Tris-HCl pH7.5, 1 mM EGTA, 10 mM MgCl2, 0.01% Tween-20) and 5 μl of substrate mix (6 μg/ml IRS-Tide [American Peptide Company], 20 μM ATP, 13.33 μCi/ml ATP (adenosine 5′-triphosphate) P^33, 50 mM Tris-HCl pH7.5, 1 mM EGTA (ethylene glycol-bis(2-aminoethylether)-N,N,N′,N′-tetraacetic acid), 10 mM MgCl2, 0.01% Tween-20) were added. After incubation for 120 minutes at room temperature, 10 μl of stop reaction buffer (5 mM EDTA, 50 μM ATP, 0.1% BSA (bovine serum albumin), 0.1% Triton X-100, 50 mM Tris-HCl pH7.5, 1 mM EGTA, 10 mM MgCl2, 0.01% Tween-20) containing 2 mg/ml streptavidin coupled polystyrene imaging beads (Amersham Biosciences) was added and incubated for 15 minutes at room temperature. Plates were centrifuged for 3 minutes at 1500 rpm and signals detected in a LEADseeker imaging system (GE).

[2] = biological target: Ba/F3 cells containing Ros1 wild-type protein (Homo sapiens, UniProt P08922, cells depend on it, form not given); experiment: Ba/F3-Ros1 cell proliferation assay, wild-type Ros1, without IL-3; assay type: cell-based, murine; conditions: -log IC50 (M); wild-type Ros1, no IL-3, 24 h, Alamar Blue
Description: (§1) This assay was carried out with Ba/F3 cells containing three different versions of Ros1: the wild-type protein, protein with a mutation at the gatekeeper residue (L2026M), and protein with a mutation identified in a tumor from a patient that became resistant to crizotinib (Xalkori®) treatment (G2032R). Compounds were solubilized in 100% DMSO (dimethyl sulfoxide) and sprayed into polystyrene, tissue culture treated 384-well plates. A 50 μl volume of cell culture medium (phenol red free RPMI-1640, 10% FBS (fetal bovine serum), 2 mM L-Glutamine) containing 20000 Ba/F3-Ros1 cells was added to each well and the plates were placed in an incubator at 37° C. and 5% CO2. After 24 hours, 10 μl of Alamar Blue solution (0.5 mM K3Fe(CN)6, 0.5 mM K4Fe(CN)6, 0.15 mM Resazurin and 100 mM Phosphate Buffer) was added to the wells, incubated for 4 hours at 37° C. and 5% CO2 before RFU's (Relative Fluorescence Units) (ex. 540 nm., em. 590 nm.) were measured in a fluorescence plate reader.

[3] = tested on: Ba/F3 cells containing Ros1 wild-type protein + IL-3; experiment: Ba/F3-Ros1 cell proliferation counter-screen, wild-type Ros1 in the presence of murine IL-3; assay type: cell-based; conditions: Mus musculus, BaF3, 24 h; -log IC50 (M); wild-type Ros1, 10 ng/ml murine IL-3 (counter-screen); read-out: BaF3-ROS1 + IL3 pIC50 (converted)
Description: as §1
As a counter-screen the same experiment was performed for the wild-type protein in the presence of 10 ng/ml murine IL-3.

[4] = biological target: Ba/F3 cells containing Ros1 L2026M (Homo sapiens, UniProt P08922, L2026M, cells depend on it, form not given); experiment: Ba/F3-Ros1 cell proliferation assay, L2026M gatekeeper mutant; assay type: cell-based, murine; conditions: -log IC50 (M), no IL-3
Description: as §1

[5] = tested on: HCC78 non-small cell lung cancer cells; experiment: HCC78 cell proliferation assay; assay type: cell-based; conditions: Homo sapiens, HCC78, 96 h; -log EC50 (M); 4 days, MTT; read-out: HCC-78 PROL pEC50 (converted)
Description: Approximately 1000 HCC78 non-small cell lung cancer cells in 180 μl of cell culture medium (RPMI-1640, 10% FBS, 2 mM L-Glutamine, 10 mM Hepes, 1 mM sodium pyruvate, 4.5 g/L glucose, 1.5 g/L sodium bicarbonate, 25 μg/ml Gentamycin) were seeded in each well of a 96-well polystyrene, tissue-culture treated plate and incubated at 37° C. and 5% CO2. After 24 hours, compounds were diluted in cell culture medium from which 20 μl was added to the wells containing cells and incubated for 4 days at 37° C. and 5% CO2. A 5 mg/ml solution of the tetrazolium dye MTT was prepared in PBS (phosphate-buffered saline) and 25 μl was added to each well. After 2 hours the medium was removed and replaced by 125 μL of 4/1 DMSO/glycine buffer (0.1M glycine, 0.1M NaCl, pH 10.5) before absorbance was determined at 538 nm.

[6] = biological target: Ba/F3 cells containing Ros1 G2032R (Homo sapiens, UniProt P08922, G2032R, cells depend on it, form not given); experiment: Ba/F3-Ros1 cell proliferation assay, G2032R mutant; assay type: cell-based, murine; conditions: -log IC50 (M), no IL-3
Description: as §1

Ba/F3 cells containing Ros1 wild-type protein, sequence (P08922 whole entry, stated change not applied): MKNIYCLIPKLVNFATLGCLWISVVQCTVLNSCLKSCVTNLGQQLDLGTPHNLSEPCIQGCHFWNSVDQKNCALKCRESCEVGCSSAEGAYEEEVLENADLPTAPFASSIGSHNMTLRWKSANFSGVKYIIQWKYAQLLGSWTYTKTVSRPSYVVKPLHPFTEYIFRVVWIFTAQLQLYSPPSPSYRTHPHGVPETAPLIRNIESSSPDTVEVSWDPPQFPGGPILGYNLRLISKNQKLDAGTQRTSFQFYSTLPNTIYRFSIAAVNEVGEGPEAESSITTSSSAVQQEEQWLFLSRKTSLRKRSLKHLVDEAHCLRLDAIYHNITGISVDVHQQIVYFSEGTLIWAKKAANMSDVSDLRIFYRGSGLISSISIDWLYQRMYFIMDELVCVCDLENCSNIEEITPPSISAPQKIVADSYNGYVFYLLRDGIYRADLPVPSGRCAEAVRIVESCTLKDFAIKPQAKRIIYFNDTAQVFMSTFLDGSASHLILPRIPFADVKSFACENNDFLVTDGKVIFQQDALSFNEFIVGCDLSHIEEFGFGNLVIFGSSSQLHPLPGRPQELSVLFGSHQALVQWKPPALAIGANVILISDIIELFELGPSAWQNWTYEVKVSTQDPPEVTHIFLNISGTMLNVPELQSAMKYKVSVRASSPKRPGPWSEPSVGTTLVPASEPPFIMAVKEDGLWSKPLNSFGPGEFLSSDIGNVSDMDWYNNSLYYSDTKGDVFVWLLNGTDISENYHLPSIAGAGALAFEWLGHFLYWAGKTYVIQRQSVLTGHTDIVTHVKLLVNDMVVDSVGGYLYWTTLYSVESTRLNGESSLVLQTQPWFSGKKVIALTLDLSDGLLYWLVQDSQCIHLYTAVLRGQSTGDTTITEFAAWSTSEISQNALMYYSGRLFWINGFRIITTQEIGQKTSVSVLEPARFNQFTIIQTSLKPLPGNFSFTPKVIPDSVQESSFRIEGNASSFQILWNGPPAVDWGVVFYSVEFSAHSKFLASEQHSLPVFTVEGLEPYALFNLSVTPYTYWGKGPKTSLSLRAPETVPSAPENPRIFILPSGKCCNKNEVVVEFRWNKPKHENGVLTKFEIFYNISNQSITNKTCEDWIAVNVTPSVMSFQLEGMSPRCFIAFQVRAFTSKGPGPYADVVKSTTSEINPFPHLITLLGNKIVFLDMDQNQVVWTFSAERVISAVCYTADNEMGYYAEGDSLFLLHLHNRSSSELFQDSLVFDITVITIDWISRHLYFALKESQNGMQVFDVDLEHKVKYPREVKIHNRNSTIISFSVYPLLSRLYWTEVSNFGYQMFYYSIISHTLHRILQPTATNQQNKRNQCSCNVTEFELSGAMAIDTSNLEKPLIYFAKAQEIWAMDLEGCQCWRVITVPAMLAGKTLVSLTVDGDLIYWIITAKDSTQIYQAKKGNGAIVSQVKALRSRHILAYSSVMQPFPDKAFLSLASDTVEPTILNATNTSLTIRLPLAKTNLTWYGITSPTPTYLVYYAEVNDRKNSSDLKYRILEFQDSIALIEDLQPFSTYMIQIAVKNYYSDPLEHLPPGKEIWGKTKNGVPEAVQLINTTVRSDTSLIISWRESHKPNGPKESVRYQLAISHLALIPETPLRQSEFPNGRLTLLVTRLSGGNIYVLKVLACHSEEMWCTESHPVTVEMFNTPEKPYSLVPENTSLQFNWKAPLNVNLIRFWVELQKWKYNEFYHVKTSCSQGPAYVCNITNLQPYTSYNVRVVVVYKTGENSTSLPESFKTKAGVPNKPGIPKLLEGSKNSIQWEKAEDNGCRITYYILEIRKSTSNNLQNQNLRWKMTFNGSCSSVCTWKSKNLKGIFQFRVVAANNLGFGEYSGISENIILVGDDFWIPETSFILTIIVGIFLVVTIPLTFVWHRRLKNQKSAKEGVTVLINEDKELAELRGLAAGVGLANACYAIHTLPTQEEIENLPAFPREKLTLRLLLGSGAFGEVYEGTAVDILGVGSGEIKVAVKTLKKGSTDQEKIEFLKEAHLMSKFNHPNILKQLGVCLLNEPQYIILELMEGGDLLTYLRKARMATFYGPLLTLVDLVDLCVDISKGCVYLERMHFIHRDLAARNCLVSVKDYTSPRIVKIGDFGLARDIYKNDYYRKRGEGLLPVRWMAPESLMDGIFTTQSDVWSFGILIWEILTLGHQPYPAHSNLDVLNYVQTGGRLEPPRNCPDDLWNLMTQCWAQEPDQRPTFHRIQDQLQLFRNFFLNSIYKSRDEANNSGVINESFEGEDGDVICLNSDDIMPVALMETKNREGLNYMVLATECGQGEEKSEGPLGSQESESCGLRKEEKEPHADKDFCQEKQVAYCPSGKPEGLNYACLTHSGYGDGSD
T1 sequence (P08922 28-2347): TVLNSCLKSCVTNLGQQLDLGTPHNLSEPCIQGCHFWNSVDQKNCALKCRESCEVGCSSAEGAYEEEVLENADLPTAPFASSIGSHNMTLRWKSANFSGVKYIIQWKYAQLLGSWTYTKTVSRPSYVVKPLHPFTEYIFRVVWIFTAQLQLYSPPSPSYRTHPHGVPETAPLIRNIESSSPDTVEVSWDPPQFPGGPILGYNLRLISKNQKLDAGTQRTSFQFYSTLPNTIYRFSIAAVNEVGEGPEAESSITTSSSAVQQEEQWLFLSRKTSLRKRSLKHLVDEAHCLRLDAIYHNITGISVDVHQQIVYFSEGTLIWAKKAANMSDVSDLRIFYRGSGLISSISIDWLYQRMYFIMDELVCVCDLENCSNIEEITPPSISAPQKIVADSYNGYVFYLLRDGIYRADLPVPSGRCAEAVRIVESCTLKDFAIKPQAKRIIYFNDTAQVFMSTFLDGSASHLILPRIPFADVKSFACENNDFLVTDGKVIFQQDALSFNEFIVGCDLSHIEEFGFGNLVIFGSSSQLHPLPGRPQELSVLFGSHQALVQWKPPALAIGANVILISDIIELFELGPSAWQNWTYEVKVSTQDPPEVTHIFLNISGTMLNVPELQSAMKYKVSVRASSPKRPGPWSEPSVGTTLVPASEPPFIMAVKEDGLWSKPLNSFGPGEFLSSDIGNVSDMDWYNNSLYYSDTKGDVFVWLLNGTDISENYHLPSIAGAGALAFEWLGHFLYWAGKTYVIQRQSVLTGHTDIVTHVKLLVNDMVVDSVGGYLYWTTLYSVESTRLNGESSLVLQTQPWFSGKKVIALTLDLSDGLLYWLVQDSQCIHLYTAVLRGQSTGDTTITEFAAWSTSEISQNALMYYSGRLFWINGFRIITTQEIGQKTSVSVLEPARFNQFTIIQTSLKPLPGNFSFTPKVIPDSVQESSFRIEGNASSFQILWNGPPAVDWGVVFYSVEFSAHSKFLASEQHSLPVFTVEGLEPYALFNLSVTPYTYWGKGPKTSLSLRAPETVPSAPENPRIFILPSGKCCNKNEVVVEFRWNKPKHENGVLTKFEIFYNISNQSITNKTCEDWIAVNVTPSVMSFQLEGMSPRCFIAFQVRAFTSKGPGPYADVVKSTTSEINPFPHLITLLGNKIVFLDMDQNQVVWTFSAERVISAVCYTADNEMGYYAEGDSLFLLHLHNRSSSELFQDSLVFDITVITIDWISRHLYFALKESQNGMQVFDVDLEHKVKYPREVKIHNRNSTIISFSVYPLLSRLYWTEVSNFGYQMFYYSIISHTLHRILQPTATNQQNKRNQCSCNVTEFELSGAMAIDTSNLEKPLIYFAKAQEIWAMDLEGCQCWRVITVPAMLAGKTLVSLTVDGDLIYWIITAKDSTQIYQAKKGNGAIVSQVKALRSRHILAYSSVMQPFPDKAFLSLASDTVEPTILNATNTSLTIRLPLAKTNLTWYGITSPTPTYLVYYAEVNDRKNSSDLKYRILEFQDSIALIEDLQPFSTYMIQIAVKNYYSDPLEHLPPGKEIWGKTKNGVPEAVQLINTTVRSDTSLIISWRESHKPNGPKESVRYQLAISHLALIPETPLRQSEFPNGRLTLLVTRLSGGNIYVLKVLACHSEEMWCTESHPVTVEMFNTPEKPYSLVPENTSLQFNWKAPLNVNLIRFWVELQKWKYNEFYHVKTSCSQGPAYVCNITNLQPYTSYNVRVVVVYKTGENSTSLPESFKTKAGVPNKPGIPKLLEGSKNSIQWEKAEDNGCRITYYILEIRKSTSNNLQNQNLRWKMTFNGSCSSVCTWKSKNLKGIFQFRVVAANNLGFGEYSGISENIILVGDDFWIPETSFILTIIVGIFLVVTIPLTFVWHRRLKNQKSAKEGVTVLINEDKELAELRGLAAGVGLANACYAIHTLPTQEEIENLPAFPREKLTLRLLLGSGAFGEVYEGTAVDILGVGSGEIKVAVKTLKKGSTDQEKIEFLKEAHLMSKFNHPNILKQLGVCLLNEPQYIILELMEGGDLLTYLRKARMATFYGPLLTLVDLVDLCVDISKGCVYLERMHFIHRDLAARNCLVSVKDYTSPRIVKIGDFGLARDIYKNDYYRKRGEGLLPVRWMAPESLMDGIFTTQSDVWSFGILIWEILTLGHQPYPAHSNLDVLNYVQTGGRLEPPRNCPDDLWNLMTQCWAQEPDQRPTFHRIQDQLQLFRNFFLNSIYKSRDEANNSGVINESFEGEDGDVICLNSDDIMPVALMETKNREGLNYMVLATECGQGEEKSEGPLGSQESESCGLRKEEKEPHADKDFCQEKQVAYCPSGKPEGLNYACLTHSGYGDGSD
Ba/F3 cells containing Ros1 L2026M, sequence (P08922 whole entry L2026M, form open): as the sequence (P08922 whole entry, stated change not applied) above, with L2026M counted along it
Ba/F3 cells containing Ros1 G2032R, sequence (P08922 whole entry G2032R, form open): as the sequence (P08922 whole entry, stated change not applied) above, with G2032R counted along it

IC50 [1]	BaF3-ROS1 − IL3 pIC50 [2]	Ba/F3 Ros1 L2026M (-IL-3) pIC50 [4]	EC50 [5]	melting point	Ba/3 Ros1 G2032R (-IL-3) pIC50 [6]	SMILES	CC50 [3]
2.51e-08 M	~8.03	7.7	1.26e-08 M	153 °C	–	CC(C)c1ccc(COc2cc(F)c(-c3c(-c4ccncc4)nn4c3NCC4)cc2F)cc1 [Co. 2]	> 1e-05 M
6.31e-08 M	7.2	6.6	–	191 °C	–	CC(C)c1ccc(COc2ccc(-c3c(-c4ccncc4)nn4c3NCC4)c(C#N)c2)cc1 [Co. 3]	> 1e-05 M
1e-07 M	7.1	7.1	6.31e-07 M	159 °C	–	CC(C)c1ccc(COc2ccc(-c3c(-c4ccncc4)nn4c3NCC4)cn2)cc1 [Co. 4]	1.26e-06 M
~1.26e-07 M	7.1	<5	7.94e-07 M	141 °C	6.7	CC(C)c1ccc(COc2ccc(-c3c(-c4ccncc4)nn4c3NCC4)c(F)c2)cc1 [Co. 5]	> 1e-05 M
2e-07 M	6.7	6.4	–	158 °C	–	CC(C)c1ccc(COc2ccc(-c3c(-c4ccncc4)nn4c3NCC4)cc2)cc1C#N [Co. 6]	> 1e-05 M
1.58e-06 M	6.3	7.5	2e-06 M	149 °C	–	CC(C)c1ccc(COc2ccc(-c3c(-c4ccncc4)nn4c3NCC4)cc2)c(F)c1F [Co. 8]	3.98e-06 M
6.31e-08 M	7.3	5.5	5.01e-07 M	–	–	CC(C)c1ccc(COc2ccc(-c3c(-c4ccncc4)nn4c3NCC4)cc2)cc1CC(O)CO (centres unmarked) [Co. 9]	> 1e-05 M
2.51e-07 M	7.0	6.8	7.94e-07 M	–	–	CC(C)c1ccc(COc2ccc(-c3c(-c4ccncc4)nn4c3NC(CO)C4)cc2)cc1 (centres unmarked) [Co. 11]	2.51e-06 M
5.01e-07 M	6.3	6	1.58e-06 M	–	–	CC(C)c1ccc(COc2ccc(-c3c(-c4ccncc4)nn4c3N(CCCN)CC4)cc2)cc1 [Co. 12]	~4.47e-06 M
3.98e-07 M	6.5	6.6	1e-06 M	109 °C	–	CC(C)c1ccc(COc2ccc(-c3c(-c4ccncn4)nn4c3NCC4)cc2)cc1 [Co. 14]	~7.41e-06 M
2.51e-07 M	6.8	<5	6.31e-07 M	–	–	CC(C)c1ccc(COc2ccc(-c3c(-c4ccncn4)nn4c3NCC4)c(F)c2)cc1 [Co. 15]	> 1e-05 M
2e-08 M	7.6	7.8	3.98e-07 M	188 °C	–	CC(C)c1ccc(COc2ccc(-c3c(-c4ccncc4)nn4c3NCCC4)c(F)c2)cc1 [Co. 18]	> 1e-05 M
1e-07 M	6.7	6.4	7.94e-07 M	120 °C	–	CC(C)c1ccc(COc2ccc(-c3c(-c4ccncc4)nn4c3N(C)CCC4)cc2)cc1 [Co. 19]	> 1e-05 M
3.16e-07 M	6.8	–	–	205 °C	–	CC(C)c1ccc(COc2ccc(-c3c(-c4ccncc4)nn4c3N(CCO)C(=O)CC4)cc2)cc1 [Co. 20]	> 1e-05 M
6.31e-08 M	7.4	6.9	–	147 °C	–	CC(C)c1ccc(COc2ccc(-c3c(-c4ccncc4)nn4c3N(CCO)CCC4)cc2)cc1 [Co. 21]	> 1e-05 M
5.01e-07 M	6.4	–	–	160 °C	–	CC(C)c1ccc(COc2ccc(-c3c(-c4ccncc4)nn4c3N(C)C(=O)CC4)cc2)cc1 [Co. 22]	> 1e-05 M
3.16e-08 M	7.9	7.8	1e-07 M	–	–	CC(C)c1ccc(COc2ccc(-c3c(-c4ccncc4)nn4c3NC(CO)CC4)c(F)c2)cc1 (centres unmarked) [Co. 23]	> 1e-05 M
6.31e-08 M	7.5	7.6	7.94e-08 M	199 °C	–	CC(C)c1ccc(COc2ccc(-c3c(-c4ccncc4)nn4c3NC(CO)CC4)cc2)cc1 (centres unmarked) [Co. 24]	7.94e-06 M
1.26e-07 M	7.0	6.8	7.94e-07 M	155 °C	–	CC(C)c1ccc(COc2ccc(-c3c(-c4ccncc4)nn4c3NCCC4CO)cc2)cc1 (centres unmarked) [Co. 25]	> 1e-05 M
3.16e-08 M	7.1	6.7	1.58e-07 M	–	–	CNC(=O)C1CCNc2c(-c3ccc(OCc4ccc(C(C)C)cc4)cc3)c(-c3ccncc3)nn21 (centres unmarked) [Co. 26]	> 1e-05 M
5.01e-07 M	6.3	5.5	–	–	–	CNCC1CCNc2c(-c3ccc(OCc4ccc(C(C)C)cc4)cc3)c(-c3ccncc3)nn21 (centres unmarked) [Co. 27]	~6.31e-06 M
7.94e-08 M	6.8	–	–	–	–	CC(C)c1ccc(COc2ccc(-c3c(-c4ccncc4)nn4cccnc34)cc2)cc1 [Co. A]	> 1e-05 M
2.51e-08 M	7.2	–	–	187 °C	–	CC(C)c1ccc(COc2ccc(-c3c(-c4ccncc4)nn4cccnc34)c(F)c2)cc1 [Co. B]	> 1e-05 M
3.16e-08 M	7.5	7.5	2e-07 M	–	–	Cc1ccn2nc(-c3ccncc3)c(-c3ccc(OCc4ccc(C(C)C)cc4)cc3F)c2n1 [Co. C]	> 1e-05 M
6.31e-08 M	7.1	6.9	5.01e-07 M	243 °C	–	CC(C)c1ccc(COc2ccc(-c3c(-c4ccncc4)nn4ccc(=O)[nH]c34)cc2)cc1 [Co. E]	> 1e-05 M
1e-06 M	<5	–	–	–	–	COC(=O)c1ccn2nc(-c3ccncc3)c(-c3ccc(OCc4ccc(C(C)C)cc4)cc3)c2n1 [Co. G]	> 1e-05 M
5.01e-07 M	5.8	–	–	140 °C	–	CCOC(=O)c1ccnc2c(-c3ccc(OCc4ccc(C(C)C)cc4)cc3)c(-c3ccncc3)nn12 [Co. H]	> 1e-05 M
5.01e-07 M	6.8	6.8	2e-06 M	207 °C	–	CNC(=O)c1ccnc2c(-c3ccc(OCc4ccc(C(C)C)cc4)cc3)c(-c3ccncc3)nn12 [Co. J]	> 1e-05 M
